The text below walks through data of patent US11173151B2, “Substituted triazole derivatives and uses thereof” (BAYER AKTIENGESELLSCHAFT, priority 2017, dated 2021).

The target of one assay is T1, human V1a receptor (Homo sapiens, UniProt P37288).
T1 construct: expressed in transfected cells; host or cells: CHO K1 (ATCC), also stably transfected with a modified aequorin
The assay is described as follows: Cellular in vitro assay for determining vasopressin receptor activity, V1a receptor cell line (CHO, aequorin luminescence). In kind it is cell-based. The settings on record: for IC50: CHO cell line transfected with human V1a receptor, [Arg]-vasopressin at EC50 concentration, read-out: IC50 hV1a; for ratio IC50 hV2/hV1a: selectivity ratio IC50 hV2 / IC50 hV1a. In outline: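 CHO K1/aequorin cells, coelenterazine 5 μg/ml o/n; cpd 10 min; [Arg]-vasopressin at EC50; luminescence read immediately; IC50.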

The next assay concerns the target T2, human V2 receptor (Homo sapiens, UniProt P30518).
T2 construct: expressed in transfected cells; host or cells: CHO K1 (ATCC) expressing firefly luciferase under a CRE-responsive promoter
The assay is described as follows: Cellular in vitro assay for determining vasopressin receptor activity, V2 receptor cell line (CHO, CRE-luciferase). It is filed as cell-based. Conditions: CHO cell line transfected with human V2 receptor; [Arg8]-vasopressin at EC50 concentration, 3 hours; read-out: IC50 hV2.

T2 sequence (P30518 whole entry): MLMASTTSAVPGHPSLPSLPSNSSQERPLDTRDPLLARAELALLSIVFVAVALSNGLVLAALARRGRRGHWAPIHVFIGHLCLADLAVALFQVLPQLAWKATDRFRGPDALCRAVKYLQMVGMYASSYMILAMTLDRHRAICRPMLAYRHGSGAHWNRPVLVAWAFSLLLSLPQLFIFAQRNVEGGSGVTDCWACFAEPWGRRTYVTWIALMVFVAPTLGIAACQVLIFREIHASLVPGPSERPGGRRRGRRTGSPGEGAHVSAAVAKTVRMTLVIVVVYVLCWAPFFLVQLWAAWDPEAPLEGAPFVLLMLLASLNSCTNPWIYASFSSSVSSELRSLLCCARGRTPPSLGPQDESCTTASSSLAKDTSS
T1 sequence (P37288 whole entry): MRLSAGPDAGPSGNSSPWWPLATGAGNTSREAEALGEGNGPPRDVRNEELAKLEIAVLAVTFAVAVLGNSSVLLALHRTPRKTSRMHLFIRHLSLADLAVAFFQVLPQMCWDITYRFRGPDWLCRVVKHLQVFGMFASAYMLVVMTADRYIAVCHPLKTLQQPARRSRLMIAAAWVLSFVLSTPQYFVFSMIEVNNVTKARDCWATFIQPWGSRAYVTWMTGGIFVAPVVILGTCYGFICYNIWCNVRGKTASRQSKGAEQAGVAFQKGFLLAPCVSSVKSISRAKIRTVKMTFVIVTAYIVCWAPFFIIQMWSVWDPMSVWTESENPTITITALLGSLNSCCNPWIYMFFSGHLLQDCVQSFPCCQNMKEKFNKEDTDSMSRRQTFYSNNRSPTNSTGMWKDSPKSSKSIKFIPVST

Regarding `O=C1CCC(NC(=O)c2ccccc2-n2cnc(Cn3nc(-c4ccc(Cl)cc4)n(CC(O)C(F)(F)F)c3=O)n2)CN1` (single isomer, unassigned) [Example 193, 2-[3-({3-(4-Chlorophenyl)-5-oxo-4-[3,3,3-trifluoro-2-hydroxypropyl]-4,5-dihydro-1H-1,2,4-triazol-1-yl}methyl)-1H-1,2,4-triazol-1-yl]-N-[6-oxopiperidin-3-yl]benzamide], the IC50 is 80 nM on human V1a receptor and 3100 nM at human V2 receptor. Moreover, the “ratio IC50 hV2/hV1a” value at human V1a receptor came to 38.8.

For `CC(C)(N)CNc1ccncc1-n1cnc(Cn2nc(-c3ccc(Cl)cc3)n(C[C@H](O)C(F)(F)F)c2=O)n1` [Example 1, 2-[(1-{4-[(2-Amino-2-methylpropyl)amino]pyridin-3-yl}-1H-1,2,4-triazol-3-yl)methyl]-5-(4-chlorophenyl)-4-[(2S)-3,3,3-trifluoro-2-hydroxypropyl]-2,4-dihydro-3H-1,2,4-triazol-3-one], the results for the IC50 on human V1a receptor and on human V2 receptor were 1950 nM and 7870 nM, respectively. Also, the “ratio IC50 hV2/hV1a” value on human V1a receptor worked out at 4.0.

For the molecule `CC(C)(O)CNc1ccncc1-n1cnc(Cn2nc(-c3ccc(Cl)cc3)n(C[C@H](O)C(F)(F)F)c2=O)n1` [Example 2, 5-(4-Chlorophenyl)-2-[(1-{4-[(2-hydroxy-2-methylpropyl)amino]pyridin-3-yl}-1H-1,2,4-triazol-3-yl)methyl]-4-[(2S)-3,3,3-trifluoro-2-hydroxypropyl]-2,4-dihydro-3H-1,2,4-triazol-3-one], on human V1a receptor, the IC50 was found to be 585 nM and the “ratio IC50 hV2/hV1a” value stood at 0.4. The IC50 at human V2 receptor stood at 210 nM.

Consider `NC1(CNc2ccncc2-n2cnc(Cn3nc(-c4ccc(Cl)cc4)n(C[C@H](O)C(F)(F)F)c3=O)n2)CC1` [Example 3, 2-{[1-(4-{[(1-Aminocyclopropyl)methyl]amino}pyridin-3-yl)-1H-1,2,4-triazol-3-yl]methyl}-5-(4-chlorophenyl)-4-[(2S)-3,3,3-trifluoro-2-hydroxypropyl]-2,4-dihydro-3H-1,2,4-triazol-3-one], for which, on human V1a receptor, the IC50 turned out to be 1220 nM and the “ratio IC50 hV2/hV1a” value is listed as 0.6. Besides, the IC50 at human V2 receptor is 730 nM.

In the case of `O=c1n(Cc2ncn(-c3cnccc3NCC3(O)CC3)n2)nc(-c2ccc(Cl)cc2)n1C[C@H](O)C(F)(F)F` [Example 4, 5-(4-Chlorophenyl)-2-{[1-(4-{[(1-hydroxycyclopropyl)methyl]amino}pyridin-3-yl)-1H-1,2,4-triazol-3-yl]methyl}-4-[(2S)-3,3,3-trifluoro-2-hydroxypropyl]-2,4-dihydro-3H-1,2,4-triazol-3-one], on human V1a receptor, the IC50 came out at 115 nM and the “ratio IC50 hV2/hV1a” value is recorded as 1.1. Further, the IC50 at human V2 receptor came out at 125 nM.

Consider `O=C1CN(c2ccncc2-n2cnc(Cn3nc(-c4ccc(Cl)cc4)n(C[C@H](O)C(F)(F)F)c3=O)n2)CCN1` [Example 5, 4-{3-[3-({3-(4-Chlorophenyl)-5-oxo-4-[(2S)-3,3,3-trifluoro-2-hydroxypropyl]-4,5-dihydro-1H-1,2,4-triazol-1-yl}methyl)-1H-1,2,4-triazol-1-yl]pyridin-4-yl}piperazin-2-one], for which the IC50 came out at 180 nM at human V1a receptor and 3000 nM at human V2 receptor. For the same molecule, at human V1a receptor, the “ratio IC50 hV2/hV1a” value was determined as 16.7.

In the case of `O=c1n(Cc2ncn(-c3cnccc3N3CCS(=O)(=O)CC3)n2)nc(-c2ccc(Cl)cc2)n1C[C@H](O)C(F)(F)F` [Example 6, 5-(4-Chlorophenyl)-2-({1-[4-(1,1-dioxidothiomorpholin-4-yl)pyridin-3-yl]-1H-1,2,4-triazol-3-yl}methyl)-4-[(2S)-3,3,3-trifluoro-2-hydroxypropyl]-2,4-dihydro-3H-1,2,4-triazol-3-one], at human V1a receptor, the IC50 turned out to be 71.5 nM and the “ratio IC50 hV2/hV1a” value stood at 35.0. Also, on human V2 receptor, the IC50 was 2500 nM.

In the case of `O=C1NCCN1CCNc1ccncc1-n1cnc(Cn2nc(-c3ccc(Cl)cc3)n(C[C@H](O)C(F)(F)F)c2=O)n1` [Example 8, 5-(4-Chlorophenyl)-2-{[1-(4-{[2-(2-oxoimidazolidin-1-yl)ethyl]amino}pyridin-3-yl)-1H-1,2,4-triazol-3-yl]methyl}-4-[(2S)-3,3,3-trifluoro-2-hydroxypropyl]-2,4-dihydro-3H-1,2,4-triazol-3-one], the values for the IC50 on human V1a receptor and on human V2 receptor were 585 nM and 3000 nM, respectively. The “ratio IC50 hV2/hV1a” value on human V1a receptor turned out to be 5.1.

Take `O=c1n(Cc2ncn(-c3cnccc3N3CCC(F)(F)CC3)n2)nc(-c2ccc(Cl)cc2)n1C[C@H](O)C(F)(F)F` [Example 9, 5-(4-Chlorophenyl)-2-({1-[4-(4,4-difluoropiperidin-1-yl)pyridin-3-yl]-1H-1,2,4-triazol-3-yl}methyl)-4-[(2S)-3,3,3-trifluoro-2-hydroxypropyl]-2,4-dihydro-3H-1,2,4-triazol-3-one]: the results for the IC50 on human V1a receptor and on human V2 receptor were 6.5 nM and 285 nM, respectively. Besides, the “ratio IC50 hV2/hV1a” value on human V1a receptor amounted to 43.8.

For the molecule `O=c1n(Cc2ncn(-c3cnccc3NCC(F)(F)F)n2)nc(-c2ccc(Cl)cc2)n1C[C@H](O)C(F)(F)F` [Example 10, 5-(4-Chlorophenyl)-2-[(1-{4-[(2,2,2-trifluoroethyl)amino]pyridin-3-yl}-1H-1,2,4-triazol-3-yl)methyl]-4-[(2S)-3,3,3-trifluoro-2-hydroxypropyl]-2,4-dihydro-3H-1,2,4-triazol-3-one], at human V1a receptor, the IC50 stood at 235 nM and the “ratio IC50 hV2/hV1a” value amounted to 1.9. Moreover, the concentration for half-maximal inhibition (IC50) at human V2 receptor turned out to be 445 nM.

With `O=c1n(Cc2ncn(-c3cnccc3NCCC(F)(F)F)n2)nc(-c2ccc(Cl)cc2)n1C[C@H](O)C(F)(F)F` [Example 11, 5-(4-Chlorophenyl)-4-[(2S)-3,3,3-trifluoro-2-hydroxypropyl]-2-[(1-{4-[(3,3,3-trifluoropropyl)amino]pyridin-3-yl}-1H-1,2,4-triazol-3-yl)methyl]-2,4-dihydro-3H-1,2,4-triazol-3-one], on human V1a receptor, the IC50 amounted to 958 nM and the “ratio IC50 hV2/hV1a” value came out at 0.4. The half-inhibitory concentration (IC50) on human V2 receptor came to 410 nM.

`CC(F)(F)CNc1ccncc1-n1cnc(Cn2nc(-c3ccc(Cl)cc3)n(C[C@H](O)C(F)(F)F)c2=O)n1` [Example 12, 5-(4-Chlorophenyl)-2-[(1-{4-[(2,2-difluoropropyl)amino]pyridin-3-yl}-1H-1,2,4-triazol-3-yl)methyl]-4-[(2S)-3,3,3-trifluoro-2-hydroxypropyl]-2,4-dihydro-3H-1,2,4-triazol-3-one]: at human V1a receptor, the IC50 came to 727 nM and the “ratio IC50 hV2/hV1a” value is given as 0.5. Moreover, on human V2 receptor, the IC50 is 370 nM.

As to `CC1(C)CN(c2ccncc2-n2cnc(Cn3nc(-c4ccc(Cl)cc4)n(C[C@H](O)C(F)(F)F)c3=O)n2)CCN1` [Example 14, 5-(4-Chlorophenyl)-2-({1-[4-(3,3-dimethylpiperazin-1-yl)pyridin-3-yl]-1H-1,2,4-triazol-3-yl}methyl)-4-[(2S)-3,3,3-trifluoro-2-hydroxypropyl]-2,4-dihydro-3H-1,2,4-triazol-3-one], the IC50 turned out to be 278 nM on human V1a receptor and 5330 nM at human V2 receptor. Further, the “ratio IC50 hV2/hV1a” value on human V1a receptor worked out at 19.2.

For the molecule `O=c1n(Cc2ncn(-c3cnccc3N3CCOCC3)n2)nc(-c2ccc(Cl)cc2)n1C[C@H](O)C(F)(F)F` [Example 15, 5-(4-Chlorophenyl)-2-({1-[4-(morpholin-4-yl)pyridin-3-yl]-1H-1,2,4-triazol-3-yl}methyl)-4-[(2S)-3,3,3-trifluoro-2-hydroxypropyl]-2,4-dihydro-3H-1,2,4-triazol-3-one], at human V1a receptor, the IC50 is 19.3 nM and the “ratio IC50 hV2/hV1a” value is 40.8. The IC50 on human V2 receptor was found to be 785 nM.

`CC(C)(C)OC(=O)CNc1ccncc1-n1cnc(Cn2nc(-c3ccc(Cl)cc3)n(C[C@H](O)C(F)(F)F)c2=O)n1` [Example 16, Tert-butyl N-{3-[3-({3-(4-chlorophenyl)-5-oxo-4-[(2S)-3,3,3-trifluoro-2-hydroxypropyl]-4,5-dihydro-1H-1,2,4-triazol-1-yl}methyl)-1H-1,2,4-triazol-1-yl]pyridin-4-yl}glycinate]: at human V1a receptor, the IC50 came out at 79.5 nM and the “ratio IC50 hV2/hV1a” value amounted to 19.5. Moreover, the IC50 on human V2 receptor stood at 1550 nM.

On to `NC(=O)CNc1ccncc1-n1cnc(Cn2nc(-c3ccc(Cl)cc3)n(C[C@H](O)C(F)(F)F)c2=O)n1` [Example 17, N^2-{3-[3-({3-(4-Chlorophenyl)-5-oxo-4-[(2S)-3,3,3-trifluoro-2-hydroxypropyl]-4,5-dihydro-1H-1,2,4-triazol-1-yl}methyl)-1H-1,2,4-triazol-1-yl]pyridin-4-yl}glycinamide], for which, on human V1a receptor, the IC50 was determined as 2250 nM and the “ratio IC50 hV2/hV1a” value is 1.3. The IC50 at human V2 receptor is 2850 nM.

As to `O=c1n(Cc2ncn(-c3cnccc3NCC3CS(=O)(=O)C3)n2)nc(-c2ccc(Cl)cc2)n1C[C@H](O)C(F)(F)F` [Example 18, 5-(4-Chlorophenyl)-2-{[1-(4-{[(1,1-dioxidothietan-3-yl)methyl]amino}pyridin-3-yl)-1H-1,2,4-triazol-3-yl]methyl}-4-[(2S)-3,3,3-trifluoro-2-hydroxypropyl]-2,4-dihydro-3H-1,2,4-triazol-3-one], at human V1a receptor, the concentration for half-maximal inhibition (IC50) is 23.7 nM and the “ratio IC50 hV2/hV1a” value came out at 82.3. Moreover, the half-maximal inhibitory concentration (IC50) on human V2 receptor is 1950 nM.

For `CC(C)(C)OC(=O)CCNc1ccncc1-n1cnc(Cn2nc(-c3ccc(Cl)cc3)n(C[C@H](O)C(F)(F)F)c2=O)n1` [Example 19, Tert-butyl N-{3-[3-({3-(4-chlorophenyl)-5-oxo-4-[(2S)-3,3,3-trifluoro-2-hydroxypropyl]-4,5-dihydro-1H-1,2,4-triazol-1-yl}methyl)-1H-1,2,4-triazol-1-yl]pyridin-4-yl}-beta-alaninate], the concentration for half-maximal inhibition (IC50) on human V1a receptor stood at 430 nM; on human V2 receptor it was 2250 nM. For the same molecule, the “ratio IC50 hV2/hV1a” value on human V1a receptor is recorded as 5.2.
